From EP1021178B1, “SELENOPHENE ANTI-TUMOR AGENTS” (Purdue Research Foundation, priority 1996, dated 1997)

Experiments:
Assay in all cases: NCI human tumor cell panel
Format in all cases: cell-based
RPMI-8226 = conditions: RPMI-8226, read-out: Log10 LC50 (converted)
HCT-116 = conditions: HCT-116, read-out: Log10 LC50 (converted)
MCF7 = conditions: MCF7, read-out: Log10 LC50 (converted)
SK-MEL-28 = conditions: SK-MEL-28, read-out: Log10 LC50 (converted)
786-0 = conditions: 786-0, read-out: Log10 LC50 (converted)
BT-549 = conditions: BT-549, read-out: Log10 LC50 (converted)
OVCAR-5 = conditions: OVCAR-5, read-out: Log10 LC50 (converted)
IGROV1 = conditions: IGROV-1, read-out: Log10 LC50 (converted)
SK-MEL-2 = conditions: SK-MEL-2, read-out: Log10 LC50 (converted)
SF-539 = conditions: SF-539, read-out: Log10 LC50 (converted)
U251 = conditions: U-251, read-out: Log10 LC50 (converted)
DU-145 = conditions: DU-145, read-out: Log10 LC50 (converted)
K-562 = conditions: K562, read-out: Log10 LC50 (converted)
NCI-H460 = conditions: NCI-H460, read-out: Log10 LC50 (converted)
NCI-H322M = conditions: read-out: Log10 LC50 (converted)
SR = conditions: read-out: Log10 LC50 (converted)
PC-3 = conditions: PC-3, read-out: Log10 LC50 (converted)
SW-620 = conditions: SW-620, read-out: Log10 LC50 (converted)
HOP-62 = conditions: HOP-62, read-out: Log10 LC50 (converted)
HCT-15 = conditions: HCT-15, read-out: Log10 LC50 (converted)
A549/ATCC = conditions: A549, read-out: Log10 LC50 (converted)

SMILES	CC50 (RPMI-8226) [µM]	CC50 (HCT-116) [µM]	CC50 (MCF7) [µM]	CC50 (SK-MEL-28) [µM]	CC50 (786-0) [µM]	CC50 (BT-549) [µM]	CC50 (OVCAR-5) [µM]	CC50 (IGROV1) [µM]	CC50 (SK-MEL-2) [µM]	CC50 (SF-539) [µM]	CC50 (U251) [µM]	CC50 (DU-145) [µM]	LC50 (K-562) [µM]	LC50 (concentration killing 50% of cells) (NCI-H460) [µM]	LC50 (concentration killing 50% of cells) (NCI-H322M) [µM]	CC50 (SR) [µM]	CC50 (PC-3) [µM]	CC50 (SW-620) [µM]	CC50 (HOP-62) [µM]	CC50 (HCT-15) [µM]	other results
O=Cc1ccc(-c2ccc(-c3ccc(C=O)[se]3)s2)[se]1	> 100	> 100	> 100	> 100	> 100	> 100	3.55	> 100	> 100	> 100	> 100	> 100	> 100	> 100	> 100	> 100	> 100	> 100	> 100	> 100	CC50 (A549/ATCC): > 100 µM
O=Cc1ccc(-c2ccc(-c3ccc(C=O)[se]3)[se]2)[se]1	> 100	> 100	> 100	> 100	> 100	> 100	> 100	74.1	> 100	> 100	> 100	> 100	> 100	> 100	> 100	> 100	> 100	> 100	> 100	> 100	CC50 (A549/ATCC): > 100 µM
O=Cc1ccc(-c2ccc(-c3cccs3)[se]2)s1	> 100	> 100	> 100	> 100	> 100	> 100	> 100	> 100	> 100	> 100	> 100	> 100	> 100	> 100	> 100	> 100	> 100	> 100	> 100	> 100	CC50 (A549/ATCC): > 100 µM
O=Cc1ccc(-c2ccc(-c3ccc(C=O)s3)[se]2)s1	> 100	> 100	> 100	> 100	> 100	> 100	> 100	> 100	> 100	> 100	89.1	> 100	> 100	> 100	> 100	> 100	> 100	> 100	> 100	> 100	CC50 (A549/ATCC): > 100 µM
